From patent US20210128596A1, “COMPOSITIONS AND METHODS FOR TREATING SEPTIC CARDIOMYOPATHY” (UNIVERSITY OF PENNSYLVANIA, priority 2017, published 2021)
Entries after “also recorded” stand apart in the source; their conditions may differ.

Tests used:
[1] = tested on: adult cardiomyocytes isolated from septic mice; assay: Seahorse oxygen consumption rate in cardiomyocytes isolated from septic mice; assay type: in vivo, mouse
Method: Mice were either sham treated or subjected to cecal ligation puncture followed by SDG treatment. The oxygen consumption rate (OCR) was measured in a seahorse assay.
Adult mouse cardiomyocytes isolation—Adult mouse cardiomyocytes (ACMs) were isolated from ventricles of C57BL/6 mice 12 hours post-sham surgery, CLP surgery or combined performance of CLP and treatment with LGM2605 at 6 hours post-surgery. Hearts from heparinized mice (90 USP; ip) were cannulated through the aorta. Hearts were perfused with perfusion buffer (120.4 mMNaCl, 14.7 mM KCL, 0.6 mM NaH2PO4, 0.6 mM KH2PO4, 1.2 mM MgSO4, 10 mM Hepes, 4.6 mM NaHCO3, 30 mMtaurine, 10 mM BDM, 5.5 mM glucose; pH 7.4) for 3 min followed by digestion with perfusion buffer containing 19250 units Collagenese type II (Worthington), 5-6 mg trypsin and 0.02 mM CaCl2 for 7 min. Ventricles were gently teared into small pieces, perfusion buffer containing 5 mg/ml BSA and 0.125 mM CaCl2 was added and filtered with 100 μm nylon. The filtrate was pelleted by gravity for 5 min, centrifuged for 30 sec at 700 rpm and the pellet resuspended in perfusion buffer containing 5 mg/ml BSA and 0.225 mM CaCl2. The cells were pelleted by gravity for 10 min, centrifuged for 30 sec at 700 rpm and the pellet resuspended in perfusion buffer containing 5 mg/ml BSA and 0.525 mM CaCl2.
Seahorse analysis—Isolated primary ACMs were counted with Hematocytometer. Dead cells were detected with Trypan Blue Dye staining. Cells were platted (3000 cells per well) in XF96 Seahorse® plates pre-coated with laminin with 20 μg/ml laminin (Invitrogen, 23017). In order to assess oxygen consumption rates (OCR) for fatty acid oxidation (FAO) recordings, cells were incubated in substrate limited medium (DMEM containing 10 mM Glucose, 1.025 mM CaCl2, 0.5 mM carnitine, pH=7.4) and assayed with fatty acid oxidation medium as per manufacturer's protocol. Before starting the assay, 1 mM palmitate conjugated with BSA was added in each well. Drugs used for maximal response during fatty acid oxidation were: Oligomycin (3 μM) (Sigma, 04875) which blocks complex V, FCCP (2 μM) (Sigma, C2920) that leads to the collapse of the proton gradient, and Rotenone/Antimycin A (0.5 μM) (Sigma, A8674)/(Sigma, R8875) where rotenone blocks complex I and antimycin A blocks complex III. The pre-hydrated with XF assay calibrant, XF cartridges were filled with the drugs and the cartridge was calibrated for 30 minutes in Seahorse Analyzer. All experiments were performed at 37° C. Calculations were made as described in the Seahorse manual and XF Seahorse Mito Stress Test kit user guide. Briefly, basal respiration was calculated with subtraction of non-mitochondrial respiration rate from the last measurement prior to first injection. Maximal respiration was calculated by subtraction of the non-mitochondrial respiration measurement from maximum measurement after FCCP injection. ATP synthesis-related OCR was obtained indirectly by measuring ATP-linked respiration in the presence of complex V inhibitor (Oligomycin). The decrease of oxygen consumption rate representing the portion of basal respiration that was used to drive ATP synthesis was calculated with subtraction of the minimum measurement after Oligomycin injection from the last measurement prior to Oligomycin injection. Spare Respiratory Capacity was equal to (maximum respiration)−(basal respiration).

AC16 cells [2] = assay: Mitochondrial membrane potential (TMRM staining) in AC16 cells; assay type: cell-based, human
Method: To measure mitochondrial membrane potential, AC16 cells were stained with TMRM (62.5 nM, T668, Molecular Probes) for 30 minutes in the dark. TMRM stain was washed in warm PBS three times and imaged at 200× magnification using the Cy3 filter (510 nm excitation wavelength).

AC16 cells [3] = assay: Mitochondrial superoxide (MitoSOX Red) in LPS-treated AC16 cells; assay type: cell-based, human; conditions: LPS 12 h with SDG/LGM2605 (50 μM)
Method: AC16 cells were either left untreated or treated for 12 hours with Liposaccharide (LPS) in the absence or presence of SDG, and subsequently stained with mitosox red.
Measurement of mitochondrial superoxide, mitochondrial membrane potential and mitochondrial number—AC16 cells were cultured in sterile cell culture dishware at approximately 80% confluence. After overnight incubation, cells were treated with LPS (1 μg/ml), LPS and LGM2605 (50 μM). LPS and LGM2605 were diluted in serum free media and the control group was incubated as well with serum free media. At 12 hours after the treatment the AC16 cells were loaded with mitochondrial superoxide indicator MitoSOX Red (5 μM, M36008, Molecular Probes) and incubated for 30 minutes in the dark. Excess MitoSOX Red was removed following three washes with PBS solution. MitoSOX Red fluorescence was recorded at 510 (excitation) and 580 nm (emission).

[4] = tested on: ventricular tissue of septic mice; assay: Antioxidant-related gene expression in ventricular tissue; assay type: in vivo, mouse; conditions: ventricular tissue 12 hours after CLP
Method: RNA purification and gene expression analysis—Total RNA was purified from AC16 cells or hearts using the TRIzol reagent according to the instructions of the manufacturer (Invitrogen). DNase-treated RNA was used for cDNA synthesis using the ProtoScript II First Strand cDNA Synthesis Kit (New England Biolabs). Quantitative real-time PCR was performed with the Sybr Select Master Mix (Applied Biosystems). Incorporation of the SYBR green dye into the PCR products was monitored with the Applied Biosystems StepOnePlus Real-Time PCR System. Samples were normalized against mouse 36B4 or human rps13 RNA.

[5] = tested on: IL-1α, IL-1β, IL-6, IL-10 and TNFα; assay: Plasma levels of cytokines (Milliplex); assay type: in vivo, mouse; conditions: plasma 12 hours post-surgery
Text: Inflammatory cytokines measurement—Circulating levels of IL-1α, IL-1β, IL-6, IL-10 and TNFα were quantified simultaneously from frozen plasma samples using the Milliplex MAP Mouse Cytokine kit (MCYTOMAG-70K-05) following the kit specifications. Samples were read using the Luminex MAGPIX multiplexing unit.

[6] = CLP + LGM2605 (6 hrs post-CLP), cardiomyocytes 12 hrs after surgery

SMILES: COc1cc(C[C@@H](CO[C@@H]2O[C@H](CO)[C@@H](O)[C@H](O)[C@H]2O)[C@H](CO[C@@H]2O[C@H](CO)[C@@H](O)[C@H](O)[C@H]2O)Cc2ccc(O)c(OC)c2)ccc1O [LGM2605, secoisolariciresinol diglucoside]
- basal respiration and oxygen consumption rate associated with ATP synthesis [1, 6]: increased basal respiration levels (FIG. 18B) and oxygen consumption rate associated with ATP synthesis (FIG. 18C), compared to both CLP and sham mice
- maximal respiration and respiratory spare capacity [1, 6]: markedly elevated by LGM2605 treatment
- maximal respiration, ATP production, non-mitochondrial oxygen consumption ([1]; CLP + SDG relative to levels observed after CLP): statistically significant increase in maximal respiration, ATP production, and non-mitochondrial oxygen consumption relative to levels observed after CLP
- basal respiration, maximal respiration, ATP production, non-mitochondrial oxygen consumption ([1]; CLP + SDG relative to the untreated levels): statistically significant increase in basal respiration, maximal respiration, ATP production, and non-mitochondrial oxygen consumption relative to the untreated levels
- oxygen consumption rate (OCR) ([1]; CLP followed by SDG treatment vs CLP and sham, listed as SDG): more than compensated for that decrease; also recorded: increased oxygen consumption rate (OCR) compared to CLP alone and sham operated mice
- proton leakage ([1]; sham, CLP, CLP + SDG): no statistically significant changes in proton leakage were observed
- TMRM staining (mitochondrial membrane potential) (AC16 cells [2]; LGM2605 with 50 μM 2,4-DNP, with or without LPS): lost its beneficial effect in restoring TMRM staining
- TMRM staining (mitochondrial membrane potential) (AC16 cells [2]; LPS and LGM2605 12 hours): significantly restored TMRM staining toward baseline
- mitochondrial superoxide levels (Mitosox Red staining) (AC16 cells [3]): suppressed by LGM2605
- mitochondrial superoxide levels (Mitosox Red staining) (AC16 cells [3]; listed as SDG): statistically significant decrease in superoxide levels in LPS-treated cells; also recorded: lower mitosox red staining
- cardiac expression of antioxidant genes (NRF2, HO1, GSTM1, NQO1, UCP2, UCP3) [4]: not accompanied by prevention of the CLP-mediated changes in cardiac expression of antioxidant genes
- circulating levels of IL-1α, IL-1β, IL-6, TNFα and IL-10 [5]: did not reduce circulating levels
